Assay results taken from patent US4468394A, “Cephalosporin compounds” (Eisai Co., Ltd., priority 1981, dated 1984).
Values after ≈ are worked out from the molar mass of the structure shown. Where a name gives a salt, the structure may show the parent alone.

Legend:
Kleb. pneumoniae EK-6 = assay: Antibacterial activity (MIC), Kleb. pneumoniae EK-6; assay type: cell-based; details: Klebsiella pneumoniae
Source text: (§1) Tables 1 and 2 show the antibacterial activity (MIC, μg/mL) of the compounds of this invention.

Pseud. aeruginosa = details: in words; cited from earlier work
Pseud. aeruginosa EP-067 = assay: Antibacterial activity (MIC), Pseud. aeruginosa EP-067; assay type: cell-based; details: Pseudomonas aeruginosa
Source text: as §1

Kleb. pneumoniae = details: in words; cited from earlier work
Pseud. aeruginosa EP-071 = assay: Antibacterial activity (MIC), Pseud. aeruginosa EP-071; assay type: cell-based; details: Pseudomonas aeruginosa
Source text: as §1

Pseud. aeruginosa EP-069 = assay: Antibacterial activity (MIC), Pseud. aeruginosa EP-069; assay type: cell-based; details: Pseudomonas aeruginosa
Source text: as §1

[1] = Acute toxicity LD50 (mouse, oral); details: in vivo
Source text: The acute toxicity values [LD50 (mouse, oral)] of the compounds of this invention are higher than 4 g/kg in the case of 7β-[D-2-(6,7-dihydroxy-4-oxo-4H-1-benzothiopyran-3-carboxamide)-2-(4- hydroxyphenyl)acetamide]-3-(1-carboxymethyl-5-tetrazolyl)thiomethyl-3-cephem-4-carboxylic acid and 7β-[D-2-(6,7-diacetoxy-1-ethyl-1,4-dihydro-4-oxoquinoline-3-carboxamide)-2-(4-hydroxyphenyl)acetamide]-3-(1-carboxymethyl-5-tetrazolyl)thiomethyl-3-cephem-4-carboxylic acid, as well as 7β-[D-2-(6,7-dihydroxy-2-oxo-2H-1-benzopyran-3-carboxamide)-2-(4-hydroxyphenyl)acetamide]-3-(1-carboxymethyl-5-tetrazolyl)thiomethyl-3-cephem-4-carboxylic acid and 7β-[D-2-(6,7-dihydroxy-2-oxo-2H-1-benzothiopyran-3-carboxamide)-2-(4- hydroxyphenyl)acetamide]-3-(1-carboxymethyl-5-tetrazolyl)thiomethyl-3-cephem-4-carboxylic acid.

Row | Compound | MIC (Kleb. pneumoniae EK-6; EK6, Table 2) [µg/mL] | antibacterial activity according to the known literature (Pseud. aeruginosa) | MIC (Pseud. aeruginosa EP-067; EP067, Table 2) [µg/mL] | antibacterial activity according to the known literature (Kleb. pneumoniae) | MIC (Pseud. aeruginosa EP-071; EP071, Table 2) [µg/mL] | MIC (Pseud. aeruginosa EP-069; EP069, Table 2) [µg/mL] | MIC (Kleb. pneumoniae EK-6; EK6, Table 1) [µg/mL] | MIC (Pseud. aeruginosa EP-067; EP067, Table 1) [µg/mL] | MIC (Pseud. aeruginosa EP-071; EP071, Table 1) [µg/mL] | MIC (Pseud. aeruginosa EP-069; EP069, Table 1) [µg/mL] | LD50 [1] [mg/kg]
1 | CC1(C)S[C@@H]2[C@H](NC(=O)[C@H](NC(=O)c3cc4ccccc4oc3=O)c3ccccc3)C(=O)N2[C@H]1C(=O)O [D(-)-α-(coumarin-3-carboxamide)benzylpenicillin, reference compound] | 12.5 (≈ 24 µM) | highest in antibacterial activity | 12.5 (≈ 24 µM) | highest in antibacterial activity | 1.56 (≈ 2.99 µM) | 12.5 (≈ 24 µM) |  |  |  |  | 
2 | CCn1cc(C(=O)N[C@@H](C(=O)N[C@@H]2C(=O)N3C(C(=O)O)=C(CSc4nnc(C)s4)CS[C@H]23)c2ccc(O)cc2)c(=O)c2cc(O)c(O)cc21 [Example 6, 7β-[D-2-(6,7-Dihydroxy-1-ethyl-1,4-dihydro-4-oxoquinoline-3-carboxamide)-2-(4-hydroxyphenyl)acetamide]-3-[5-methyl-2-(1,3,4-thiadiazolyl)]thiomethyl-3-cephem-4-carboxylic acid] |  |  |  |  |  |  | 0.05 (≈ 0.069 µM) | 3.13 (≈ 4.32 µM) | 0.2 (≈ 0.276 µM) | 3.13 (≈ 4.32 µM) | 
3 | Cn1nnnc1SCC1=C(C(=O)O)N2C(=O)[C@@H](NC(=O)[C@H](NC(=O)c3cc4cc(O)c(O)cc4oc3=O)c3ccc(O)cc3)[C@H]2SC1 [Example 20, 7β-[D-2-(6,7-Dihydroxy-2-oxo-2H-1-benzopyran-3-carboxamide)-2-(4-hydroxyphenyl)acetamide]-3-(1-methyl-5-tetrazolyl)thiomethyl-3-cephem-4-carboxylic acid] | 0.2 (≈ 0.293 µM) |  | 0.8 (≈ 1.17 µM) |  | 0.2 (≈ 0.293 µM) | 0.8 (≈ 1.17 µM) |  |  |  |  | 
4 | CC(=O)Oc1cc2cc(C(=O)N[C@@H](C(=O)N[C@@H]3C(=O)N4[C@@H]3SC(C)(C)[C@@H]4C(=O)O)c3ccccc3)c(=O)sc2cc1OC(C)=O [Example 28, 6β-[D-2-(6,7-Diacetoxy-2-oxo-2H-1-benzothiopyran-3-carboxamide)-2-phenylacetamide]penicillanic acid] | 0.1 (≈ 0.153 µM) |  | 1.56 (≈ 2.39 µM) |  | 0.1 (≈ 0.153 µM) | 3.13 (≈ 4.79 µM) |  |  |  |  | 
5 | CCn1cc(C(=O)N[C@@H](C(=O)N[C@@H]2C(=O)N3C(C(=O)O)=C(CSc4nnnn4CC(=O)O)CS[C@H]23)c2ccc(O)cc2)c(=O)c2cc(OC(C)=O)c(OC(C)=O)cc21 [Example 5, 7β-[D-2-(6,7-Diacetoxy-1-ethyl-1,4-dihydro-4-oxoquinoline-3-carboxamide)-2-(4-hydroxyphenyl)acetamide]-3-(1-carboxymethyl-5-tetrazolyl)thiomethyl-3-cephem-4-carboxylic acid] |  |  |  |  |  |  | 0.024 (≈ 0.0287 µM) | 3.13 (≈ 3.74 µM) | 0.2 (≈ 0.239 µM) | 3.13 (≈ 3.74 µM) | > 4000
6 | O=C(O)Cn1nnnc1SCC1=C(C(=O)O)N2C(=O)[C@@H](NC(=O)[C@H](NC(=O)c3cc4cc(O)c(O)cc4sc3=O)c3ccc(O)cc3)[C@H]2SC1 [Example 30] |  |  |  |  |  |  |  |  |  |  | > 4000
7 | CC(=O)OCC1=C(C(=O)O)N2C(=O)[C@@H](NC(=O)[C@H](NC(=O)c3cc4ccc(O)c(O)c4oc3=O)c3ccc(O)cc3)[C@H]2SC1 [Example 25, 7β-[D-2-(7,8-Dihydroxy-2-oxo-2H-1-benzopyran-3-carboxamide)-2-(4-hydroxyphenyl)acetamide]-3-acetoxymethyl-3-cephem-4-carboxylic acid] | 0.1 (≈ 0.16 µM) |  | 0.8 (≈ 1.28 µM) |  | 0.1 (≈ 0.16 µM) | 1.56 (≈ 2.49 µM) |  |  |  |  | 
8 | CO[C@@]1(NC(=O)[C@H](NC(=O)c2csc3cc(OC(C)=O)c(OC(C)=O)cc3c2=O)c2ccc(O)cc2)C(=O)N2C(C(=O)O)=C(COC(C)=O)CS[C@@H]21 [Example 11, 7β-[D-2-(6,7-Diacetoxy-4-oxo-4H-1-benzothiopyran-3-carboxamide)-2-(4-hydroxyphenyl)acetamide]-7α-methoxy-3-acetoxymethyl-3-cephem-4-carboxylic acid] |  |  |  |  |  |  | 0.024 (≈ 0.0318 µM) | 3.13 (≈ 4.14 µM) | 0.2 (≈ 0.265 µM) | 3.13 (≈ 4.14 µM) | 
9 | CCn1cc(C(=O)N[C@@H](C(=O)N[C@@H]2C(=O)N3C(C(=O)O)=C(CSc4nnc(C)s4)CS[C@H]23)c2ccc(O)cc2)c(=O)c2cc(OC(C)=O)c(O)cc21 [Example 12, 7β-[D-2-(6-Acetoxy-7-hydroxy-1-ethyl-1,4-dihydro-4-oxoquinoline-3-carboxamide)-2-(4-hydroxyphenyl)acetamide]-3-[5-methyl-2-(1,3,4-thiadiazolyl)]thiomethyl-3-cephem-4-carboxylic acid sodium salt] |  |  |  |  |  |  | 0.024 | 3.13 | 0.2 | 3.13 | 
10 | CC(=O)OCC1=C(C(=O)O)N2C(=O)[C@@H](NC(=O)[C@H](NC(=O)c3cc4cc(OC(C)=O)c(OC(C)=O)cc4n(C)c3=O)c3ccc(O)cc3)[C@H]2SC1 [Example 35, 7β-[D-2-(6,7-Diacetoxy-1-methyl-1,2-dihydro-2-oxoquinoline-3-carboxamide)-2-(4-hydroxyphenyl)acetamide]-3-acetoxymethyl-3-cephem-4-carboxylic acid] | 0.8 (≈ 1.11 µM) |  | 3.13 (≈ 4.33 µM) |  | 0.2 (≈ 0.277 µM) | 1.56 (≈ 2.16 µM) |  |  |  |  | 
11 | CC1(C)S[C@@H]2[C@H](NC(=O)[C@H](NC(=O)c3cnc4cccnc4c3O)c3ccccc3)C(=O)N2[C@H]1C(=O)O [D(-)-α-(4-hydroxy-1,5-naphthyridine-3-carboxamide)benzylpenicillin, reference compound] |  | highest antibacterial activity |  |  |  |  | 3.13 (≈ 6 µM) | 12.5 (≈ 24 µM) | 0.8 (≈ 1.53 µM) | 12.5 (≈ 24 µM) | 
12 | O=C(O)Cn1nnnc1SCC1=C(C(=O)O)N2C(=O)[C@@H](NC(=O)[C@H](NC(=O)c3csc4cc(O)c(O)cc4c3=O)c3ccc(O)cc3)[C@H]2SC1 [Example 10, 7β-[D-2-(6,7-Dihydroxy-4-oxo-4H-1-benzothiopyran-3-carboxamide)-2-(4-hydroxyphenyl)acetamide]-3-(1-carboxymethyl-5-tetrazolyl)thiomethyl-3-cephem-4-carboxylic acid] |  |  |  |  |  |  | ≤ 0.012 | 3.13 (≈ 4.22 µM) | 0.2 (≈ 0.27 µM) | 3.13 (≈ 4.22 µM) | > 4000
13 | CCn1cc(C(=O)N[C@@H](C(=O)N[C@@H]2C(=O)N3[C@@H]2SC(C)(C)[C@@H]3C(=O)O)c2ccccc2)c(=O)c2cc(OC(C)=O)c(OC(C)=O)cc21 [Example 2, 6β-[D-2-(6,7-Diacetoxy-1-ethyl-1,4-dihydro-4-oxoquinoline-3-carboxamide)-2-phenylacetamide]penicillanic acid] |  |  |  |  |  |  | 0.2 (≈ 0.301 µM) | 1.56 (≈ 2.35 µM) | 0.1 (≈ 0.15 µM) | 3.13 (≈ 4.71 µM) | 
14 | O=C(O)Cn1nnnc1SCC1=C(C(=O)O)N2C(=O)[C@@H](NC(=O)[C@H](NC(=O)c3cc4ccc(O)c(O)c4oc3=O)c3ccc(O)cc3)[C@H]2SC1 [Example 27, 7β-[D-(7,8-Dihydroxy-2-oxo-2H-1-benzopyran-3-carboxamide)-2-(4-hydroxyphenyl)acetamide]-3-(1-carboxymethyl-5-tetrazolyl)thiomethyl-3-cephem-4-carboxylic acid] | ≤ 0.012 |  | 1.56 (≈ 2.15 µM) |  | 0.1 (≈ 0.138 µM) | 1.56 (≈ 2.15 µM) |  |  |  |  | 
15 | O=C(O)Cn1nnnc1SCC1=C(C(=O)O)N2C(=O)[C@@H](NC(=O)[C@H](NC(=O)c3cc4cc(O)c(O)cc4oc3=O)c3ccc(O)cc3)[C@H]2SC1 [Example 21, 7β-[D-2-(6,7-Dihydroxy-2-oxo-2H-1-benzopyran-3-carboxamide)-2-(4-hydroxyphenyl)acetamide]-3-(1-carboxymethyl-5-tetrazolyl)thiomethyl-3-cephem-4-carboxylic acid] |  |  |  |  |  |  |  |  |  |  | > 4000
16 | CC(=O)Oc1cc2cc(C(=O)N[C@@H](C(=O)N[C@@H]3C(=O)N4[C@@H]3SC(C)(C)[C@@H]4C(=O)O)c3ccccc3)c(=O)oc2cc1OC(C)=O [Example 14, 6β-[D-2-(6,7-Diacetoxy-2-oxo-2H-1-benzopyran-3-carboxamide)-2-phenylacetamide]penicillanic acid] | 0.2 (≈ 0.314 µM) |  | 1.56 (≈ 2.45 µM) |  | 0.2 (≈ 0.314 µM) | 1.56 (≈ 2.45 µM) |  |  |  |  | 
17 | Cc1nnc(SCC2=C(C(=O)O)N3C(=O)[C@@H](NC(=O)[C@H](NC(=O)c4cc5cc(O)c(O)cc5[nH]c4=O)c4ccc(O)cc4)[C@H]3SC2)s1 [Example 34, 7β-[D-2-(6,7-Dihydroxy-1,2-dihydro-2-oxoquinoline-3-carboxamide)-2-(4-hydroxyphenyl)acetamide]-3-[5-methyl-2-(1,3,4-thiadiazolyl)]thiomethyl-3-cephem-4-carboxylic acid] | 0.4 (≈ 0.574 µM) |  | 3.13 (≈ 4.49 µM) |  | 0.4 (≈ 0.574 µM) | 3.13 (≈ 4.49 µM) |  |  |  |  | 
